Measured values: ChEMBL document CHEMBL5505960, “Synthesis and evaluation of butylphthalide-scutellarein hybrids as multifunctional agents for the treatment of Alzheimer's disease” (Eur J Med Chem, 2024)
Activity calls are given as the source filed them. No cut-off for these calls is given here.

How the values were obtained:
[1] = target: Amyloid-beta precursor protein (Homo sapiens) (UniProt P05067); experiment: Inhibition of amyloid beta (1 to 42) (unknown origin) self induced aggregation at 25 uM by ThT fluorescence assay relative to control
[2] = Antioxidant activity assessed as trolox equivalent of ORAC radical scavenging activity by ORAC-FL assay relative to trolox; assay type: functional
[3] = target: Amyloid-beta precursor protein (Homo sapiens) (UniProt P05067); experiment: Inhibition of Cu2+ induced amyloid beta (1 to 42)(unknown origin) fibrillation at 25 uM by ThT fluorescence assay relative to control
[4] = target: Amyloid-beta precursor protein (Homo sapiens) (UniProt P05067); experiment: Disaggregation of self-induced amyloid beta (1 to 42) (unknown origin) fibrils at 25 uM by ThT fluorescence assay relative to control
[5] = test system: BV-2; experiment: Cytotoxicity against LPS-induced mouse BV-2 cells assessed as cell viability at 0.5 to 10 uM incubated for 24 hrs by MTT assay; assay type: toxicity, cell-based; conditions: bv-2, 24 h, dose 0.5-10 µM
[6] = test system: BV-2; experiment: Antineuroinflammatory activity in LPS-induced mouse BV-2 cells assessed as inhibition of IL-1 beta release at 0.5 uM preincubated for 30 mins followed by LPS stimulation and measured after 24 hrs relative to control; assay type: functional; set-up: scale not given: the % may be the effect or the level left; conditions: time 24.5 hrs
[7] = test system: HT-22; experiment: Neuroprotective activity against amyloid beta (1 to 42)-induced injury in mouse HT-22 cells assessed as reversal of reduction in cell numbers at 10 uM measured after 24 hrs by MTT assay; assay type: functional, cell-based
[8] = test system: BV-2; experiment: Antineuroinflammatory activity in LPS-induced mouse BV-2 cells assessed as inhibition of TNF-alpha release at 2.5 uM preincubated for 30 mins followed by LPS stimulation and measured after 24 hrs relative to control; assay type: functional; set-up: scale not given: the % may be the effect or the level left; conditions: time 24.5 hrs
[9] = test system: BV-2; experiment: Antineuroinflammatory activity in LPS-induced mouse BV-2 cells assessed as inhibition of TNF-alpha release at 10 uM preincubated for 30 mins followed by LPS stimulation and measured after 24 hrs relative to control; assay type: functional; set-up: scale not given: the % may be the effect or the level left; conditions: time 24.5 hrs
[10] = test system: BV-2; experiment: Antineuroinflammatory activity in LPS-induced mouse BV-2 cells assessed as inhibition of IL-1 beta release at 10 uM preincubated for 30 mins followed by LPS stimulation and measured after 24 hrs relative to control; assay type: functional; set-up: scale not given: the % may be the effect or the level left; conditions: time 24.5 hrs
[11] = test system: BV-2; experiment: Antineuroinflammatory activity in LPS-induced mouse BV-2 cells assessed as inhibition of NO release at 10 uM preincubated for 30 mins followed by LPS stimulation and measured after 24 hrs relative to control; assay type: functional; set-up: scale not given: the % may be the effect or the level left; conditions: time 24.5 hrs
[12] = test system: BV-2; experiment: Cytotoxicity against mouse BV-2 cells at upto 10 uM measured after 24 hrs by MTT assay; assay type: toxicity, cell-based; conditions: bv-2, 24 h
[13] = test system: BV-2; experiment: Antineuroinflammatory activity in LPS-induced mouse BV-2 cells assessed as inhibition of IL-1 beta release at 2.5 uM preincubated for 30 mins followed by LPS stimulation and measured after 24 hrs relative to control; assay type: functional; set-up: scale not given: the % may be the effect or the level left; conditions: time 24.5 hrs
[14] = test system: HT-22; experiment: Neuroprotective activity against amyloid beta (1 to 42) induced cell injury in mouse HT-22 cells assessed as cell viability at 50 uM incubated for 24 hrs by MTT assay; assay type: functional, cell-based
[15] = test system: BV-2; experiment: Antineuroinflammatory activity in LPS-induced mouse BV-2 cells assessed as inhibition of NO release at 0.5 uM preincubated for 30 mins followed by LPS stimulation and measured after 24 hrs relative to control; assay type: functional; set-up: scale not given: the % may be the effect or the level left; conditions: time 24.5 hrs
[16] = test system: BV-2; experiment: Antineuroinflammatory activity in LPS-induced mouse BV-2 cells assessed as inhibition of NO release at 2.5 uM preincubated for 30 mins followed by LPS stimulation and measured after 24 hrs relative to control; assay type: functional; set-up: scale not given: the % may be the effect or the level left; conditions: time 24.5 hrs
[17] = test system: BV-2; experiment: Antineuroinflammatory activity in LPS-induced mouse BV-2 cells assessed as inhibition of TNF-alpha release at 0.5 uM preincubated for 30 mins followed by LPS stimulation and measured after 24 hrs relative to control; assay type: functional; set-up: scale not given: the % may be the effect or the level left; conditions: time 24.5 hrs
[18] = test system: HT-22; experiment: Neuroprotective activity against amyloid beta (1 to 42)-induced injury in mouse HT-22 cells assessed as reversal of reduced cell synapse length at 10 uM measured after 24 hrs […]; assay type: functional, cell-based

Chain of Amyloid-beta precursor protein (Homo sapiens) (P05067 whole entry): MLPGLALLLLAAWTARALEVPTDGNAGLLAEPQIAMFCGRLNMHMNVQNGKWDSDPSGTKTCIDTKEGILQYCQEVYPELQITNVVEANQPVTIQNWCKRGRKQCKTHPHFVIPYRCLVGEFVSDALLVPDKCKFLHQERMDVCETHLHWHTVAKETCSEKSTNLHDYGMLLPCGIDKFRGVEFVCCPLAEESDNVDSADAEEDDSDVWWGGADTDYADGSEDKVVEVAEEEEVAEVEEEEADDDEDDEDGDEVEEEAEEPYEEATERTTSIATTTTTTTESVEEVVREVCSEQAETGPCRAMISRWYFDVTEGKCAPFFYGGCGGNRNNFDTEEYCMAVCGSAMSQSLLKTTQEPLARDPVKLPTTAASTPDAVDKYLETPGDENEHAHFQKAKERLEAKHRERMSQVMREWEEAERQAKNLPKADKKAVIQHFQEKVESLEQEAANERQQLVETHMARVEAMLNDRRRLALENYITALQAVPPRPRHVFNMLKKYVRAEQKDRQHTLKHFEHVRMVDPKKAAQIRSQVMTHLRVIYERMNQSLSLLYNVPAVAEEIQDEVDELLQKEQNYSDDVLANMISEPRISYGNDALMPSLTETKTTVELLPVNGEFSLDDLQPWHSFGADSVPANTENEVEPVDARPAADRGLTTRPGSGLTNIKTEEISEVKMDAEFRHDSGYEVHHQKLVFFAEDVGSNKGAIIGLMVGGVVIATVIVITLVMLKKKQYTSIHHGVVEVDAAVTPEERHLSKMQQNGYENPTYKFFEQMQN

| SMILES | inhibition [1] [%] | Activity [2] | other results |
| --- | --- | --- | --- |
| CCCCCCC1OC(=O)c2c1cc(OC)c(OC)c2OC (stereo not drawn) | 25.2 | 0.68 |  |
| C=CCCCCC1OC(=O)c2c1cc(OC)c(OC)c2O (stereo not drawn) | 19.2 | 1.77 |  |
| CCCCCCC1OC(=O)c2c1cc(OC)c(O)c2O (stereo not drawn) | 83.3 | 2.5 | inhibition [3]: 30.5%; Activity [4]: 32.3% |
| C=CCCCCCC1OC(=O)c2c1cc(OC)c(OC)c2O (stereo not drawn) | < 5 | 1.81 |  |
| CCCCCCCC1OC(=O)c2c1cc(OC)c(OC)c2O (stereo not drawn) | 26.4 | 1.34 |  |
| CCCCCC1OC(=O)c2c1cc(OC)c(OC)c2O (stereo not drawn) | 35.1 | 1.36 |  |
| CCCCCC1OC(=O)c2c1cc(OC)c(O)c2OC (stereo not drawn) | 19.4 | 2.08 |  |
| C=CCCCC1OC(=O)c2c1cc(OC)c(OC)c2OC (stereo not drawn) | 19.2 | 0.71 |  |
| C=CCCCCC1OC(=O)c2c1cc(OC)c(OC)c2OC (stereo not drawn) | 17.6 | 0.61 |  |
| CCCCC1OC(=O)c2c1cc(OC)c(OC)c2OC (stereo not drawn) | 15.9 | 0.4 |  |
| C=CCCCC1OC(=O)c2c1cc(OC)c(OC)c2O (stereo not drawn) | 24.6 | 1.68 |  |
| CCCCCCC1OC(=O)c2c1cc(OC)c(O)c2OC (stereo not drawn) | 29.1 | 1.6 |  |
| CCCCCCC1OC(=O)c2c1cc(OC)c(OC)c2O (stereo not drawn) | 25.2 | 1.44 |  |
| CCCC1OC(=O)c2c1cc(OC)c(OC)c2O (stereo not drawn) | 27.3 | 1.21 |  |
| CCCCC1OC(=O)c2c1cc(OC)c(O)c2O (stereo not drawn) | 78.8 | 2.36 | inhibition [3]: 28.5%; Activity [4]: 39.5% |
| CCCC1OC(=O)c2c1cc(OC)c(OC)c2OC (stereo not drawn) | 21.8 | 0.39 |  |
| C=CC(C)(C)C1OC(=O)c2c1cc(OC)c(OC)c2O (stereo not drawn) | 37.1 | 1.94 |  |
| C=CCCC1OC(=O)c2c1cc(OC)c(OC)c2OC (stereo not drawn) | 24.3 | 0.53 |  |
| CCCCCC1OC(=O)c2c1cc(OC)c(OC)c2OC (stereo not drawn) | 19.4 | 0.47 |  |
| CCCCC1OC(=O)c2ccccc21 (racemic) [RAC-3-N-BUTYLPHTHALIDE] |  | 0.23 | Activity [5]: Non-Toxic; Activity [6]: 11.5%; Activity [7]: inactive; Activity [8]: 24%; Activity [9]: 40.6%; Activity [10]: 31.3%; Activity [11]: 45.5%; Activity [12]: Non-Toxic; Activity [13]: 21.1%; Activity [14]: Active; Activity [15]: 13.3%; Activity [16]: 23.2%; Activity [17]: 12.6%; Activity [18]: inactive |
| CCCCC1OC(=O)c2c1cc(OC)c(O)c2OC (stereo not drawn) | 23.4 | 1.59 |  |
| C=CCCC1OC(=O)c2c1cc(OC)c(OC)c2O (stereo not drawn) | < 5 | 1.93 |  |
| C=CCC1OC(=O)c2c1cc(OC)c(OC)c2O (stereo not drawn) | < 5 | 1.71 |  |
| C=CCC1OC(=O)c2c1cc(OC)c(OC)c2OC (stereo not drawn) | 25.4 | 0.41 |  |
| CCCCCCCC1OC(=O)c2c1cc(OC)c(OC)c2OC (stereo not drawn) | 16.5 | 0.62 |  |
| C=CCCCCCC1OC(=O)c2c1cc(OC)c(OC)c2OC (stereo not drawn) | 19.2 | 0.46 |  |
| CCCCC1OC(=O)c2c1cc(OC)c(OC)c2O (stereo not drawn) | 30.2 | 1.27 |  |
| C=CC(C)(C)C1OC(=O)c2c1cc(OC)c(OC)c2OC (stereo not drawn) | 15 | 0.45 |  |
